Source: the supplement of paper PMC10307832

Columns and labels:
Assay in all cases: relative viability (nuclei count vs DMSO), 5 days (fraction); higher = more cells survive
[1] = compound: O=C(O)c1ccc2c(c1)nc(Nc1cccc(Cl)c1)c1ccncc12 [Silmitasertib] + CC(C)C[C@H](NC(=O)[C@H](Cc1ccccc1)NC(=O)c1cnccn1)B(O)O [Bortezomib] (partner 0.002 µM)
Procedure, shortened: (§1)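 A single step with final 0.05% Triton X-100, 1% formaldehyde and 1 ug/ml Hoechst fixed the cells and stained nuclei 5 days after treatment. Lung cancer cell lines in 1536-well plates had been treated by pin tool the day after seeding with one drug alone or a fixed anchor-drug dose plus five library-drug doses (not always all listed) in √10 steps, and nuclei were counted on 4× images. Relative viability is the ratio of nuclei in treated wells to nuclei in vehicle wells, taken as the median of duplicate plates.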

[2] = compound: O=C(O)c1ccc2c(c1)nc(Nc1cccc(Cl)c1)c1ccncc12 [Silmitasertib] + CC1(C)CCC(c2ccc(Cl)cc2)=C(CN2CCN(c3ccc(C(=O)NS(=O)(=O)c4ccc(N[C@H](CCN5CCOCC5)CSc5ccccc5)c(S(=O)(=O)C(F)(F)F)c4)cc3)CC2)C1 [Navitoclax] (partner 0.5 µM)
Procedure, shortened: as §1

[3] = compound: O=C(O)c1ccc2c(c1)nc(Nc1cccc(Cl)c1)c1ccncc12 [Silmitasertib] + CS(=O)(=O)CCNCc1ccc(-c2ccc3ncnc(Nc4ccc(OCc5cccc(F)c5)c(Cl)c4)c3c2)o1 [Lapatinib] (partner 2 µM)
Procedure, shortened: as §1

[4] = compound: O=C(O)c1ccc2c(c1)nc(Nc1cccc(Cl)c1)c1ccncc12 [Silmitasertib] + CS(=O)(=O)N1CCN(Cc2cc3nc(-c4cccc5[nH]ncc45)nc(N4CCOCC4)c3s2)CC1 [Pictilisib] (partner 1 µM)
Procedure, shortened: as §1

Silmitasertib + OSI-027 = compound: O=C(O)c1ccc2c(c1)nc(Nc1cccc(Cl)c1)c1ccncc12 [Silmitasertib] + COc1cccc2cc(-c3nc([C@H]4CC[C@H](C(=O)O)CC4)n4ncnc(N)c34)[nH]c12 [OSI-027] (partner 0.5 µM)
Procedure, shortened: as §1

| Cell Line | relative viability ([1]; first compound 0.04 µM) | relative viability ([1]; first compound 0.4 µM) | relative viability ([1]; first compound 1.265 µM) | relative viability ([1]; first compound 4 µM) | relative viability ([2]; first compound 0.04 µM) | relative viability ([2]; first compound 0.4 µM) | relative viability ([2]; first compound 1.265 µM) | relative viability ([2]; first compound 4 µM) | relative viability ([3]; first compound 0.04 µM) | relative viability ([3]; first compound 0.4 µM) | relative viability ([3]; first compound 1.265 µM) | relative viability ([3]; first compound 4 µM) | relative viability ([4]; first compound 0.04 µM) | relative viability ([4]; first compound 0.4 µM) | relative viability ([4]; first compound 1.265 µM) | relative viability ([4]; first compound 4 µM) | relative viability (Silmitasertib + OSI-027; first compound 0.04 µM) | relative viability (Silmitasertib + OSI-027; first compound 1.265 µM) | relative viability (Silmitasertib + OSI-027; first compound 4 µM) | relative viability (Silmitasertib + OSI-027; first compound 0.4 µM) |
| --- | --- | --- | --- | --- | --- | --- | --- | --- | --- | --- | --- | --- | --- | --- | --- | --- | --- | --- | --- | --- |
| NCI-H1703 | 0.352 | 0.278 | 0.294 | 0.193 | 1.44 | 1.01 | 1.15 | 0.807 | 1.27 | 0.868 | 1.01 | 0.892 | 0.25 | 0.291 | 0.228 | 0.252 | – | – | – | – |
| LK-2 | – | – | – | – | 0.854 | 0.696 | 0.732 | 0.576 | 1.12 | 0.928 | 0.867 | 0.718 | 0.618 | 0.52 | 0.514 | 0.499 | 0.266 | 0.247 | 0.184 | – |
| NCI-H650 | 0.996 | 0.515 | 0.614 | 0.345 | – | – | – | – | 1.13 | 0.722 | 0.525 | 0.272 | 1.08 | 0.817 | 0.614 | 0.75 | 0.699 | 0.515 | 0.366 | 0.424 |
| NCI-H661 | 0.852 | – | 0.734 | 1.1 | – | – | – | – | 0.522 | – | 0.477 | 0.661 | 0.461 | 0.298 | 0.243 | 0.271 | 0.864 | 0.635 | 0.577 | 0.593 |
| NCI-H1793 | – | – | – | – | 0.46 | 0.315 | 0.395 | 0.311 | 0.979 | 0.728 | 0.437 | 0.488 | 0.374 | 0.247 | 0.274 | 0.31 | 0.329 | 0.27 | 0.217 | 0.192 |
| NCI-H1395 | – | – | – | – | 1.2 | 0.816 | 1.1 | 0.947 | 1.29 | 0.672 | 0.919 | 0.68 | 0.623 | 0.492 | 0.587 | 0.427 | 0.731 | 0.591 | 0.477 | 0.552 |
| SK-MES-1 | – | – | – | – | 1.27 | 1.1 | 1.15 | 0.576 | 0.442 | 0.594 | 0.536 | 0.429 | 0.412 | 0.439 | 0.456 | 0.373 | 0.675 | 0.435 | 0.236 | 0.558 |
| NCI-H1563 | 0.932 | 0.903 | 0.844 | 0.821 | – | – | – | – | 1.13 | 0.925 | 0.909 | 0.877 | 0.62 | 0.679 | 0.68 | 0.578 | 0.773 | 0.779 | 0.681 | 0.773 |
| IA-LM | 0.879 | 0.632 | 1.01 | 0.586 | 1.08 | 0.665 | 0.968 | 0.623 | 1.1 | 0.615 | 0.967 | 0.203 | 0.346 | 0.267 | 0.233 | 0.149 | – | – | – | – |
